# Reference: patent US5696083A, “Personal care composition containing pyrithione and polymyxin” (Olin Corporation, priority 1994, dated 1997)
# Tests used:
# Assay in all cases: MIC in Tryptic Soy Broth, compounds alone and in mixtures
# Format in all cases: cell-based
# Alcaligens faecalis = settings: 28° C.; for Minimum Inhibitory Concentration, Compound Used Alone: Tryptic Soy Broth
# Method: (§1) Determinations of minimum inhibitory concentrations (MIC's) of the two compounds (pyrithione salts and/or polymyxin sulfate) in a nutrient broth (alone and in mixtures) were conducted to evaluate interactions. Stock solutions of pyrithione salts and/or polymyxin salts were diluted in Tryptic Soy Broth (Difco), and the dilutions were inoculated with an equal volume of bacterial culture (10^6 /ml) or fungal spore suspension (10^5 /ml) in Tryptic Soy Broth and incubated at 28° C. for 3-7 days.
# (§2) The interactions of the antimicrobials were determined according to accepted procedures (M. C. Berenbaum [Tables 1 and 2] and P. F. Dougherty "Microdilution Transfer Plate Technique for Determining In Vitro Synergy of Antimicrobial Agents", ANTIMICROBIAL AGENTS AND CHEMOTHERAPY, Vol. 11, No. 2, p. 225-228 (Feb. 1977, American Society for Microbiology) [Tables 3 and 4]). The concentration of each agent in the combination that inhibits the organisms is expressed as a fraction of the concentration that causes the same effect when the same agent is tested alone (i.e., its fractional inhibitory concentration, FIC). If the sum of the FIC's is 1, the combination is additive in its antimicrobial effect; if the sum is <1, the combination is synergistic; and if the sum is >1, the combination is antagonistic.
# (§3) ^a Compounds were serially diluted in Tryptic soy Broth (DIFCO),
# (§4) ^b Each dilution contained 10^6 bacteria/ml of 10^5 fungi/ml.
# (§5) ^a Stock solutions of ZP in dimethylsulfoxide and PB in sterile water
# Aspergillus niger = settings: 28° C.; for Minimum Inhibitory Concentration, Compound Used Alone: Tryptic Soy Broth
# Method: as §1, §2, §3, §4, §5
# Aureobasidium pullulans = settings: 28° C.; for Minimum Inhibitory Concentration, Compound Used Alone: Tryptic Soy Broth
# Method: as §1, §2, §3, §4, §5
# Candida albicans = settings: 28° C.; for Minimum Inhibitory Concentration, Compound Used Alone: Tryptic Soy Broth
# Method: as §1, §2, §3, §4, §5
# Cephalosporium sp. = settings: 28° C.; for Minimum Inhibitory Concentration, Compound Used Alone: Tryptic Soy Broth
# Method: as §1, §2, §3, §4, §5
# Chaetomium globosium = settings: 28° C.; for Minimum Inhibitory Concentration, Compound Used Alone: Tryptic Soy Broth
# Method: as §1, §2, §3, §4, §5
# Citrobacter freundii = settings: 28° C.; for Minimum Inhibitory Concentration, Compound Used Alone: Tryptic Soy Broth
# Method: as §1, §2, §3, §4, §5
# Fusarium solani = settings: 28° C.; for Minimum Inhibitory Concentration, Compound Used Alone: Tryptic Soy Broth
# Method: as §1, §2, §3, §4, §5
# Gliocladium virens = settings: 28° C.; for Minimum Inhibitory Concentration, Compound Used Alone: Tryptic Soy Broth
# Method: as §1, §2, §3, §4, §5
# Penicillin pinophilium = settings: 28° C.; for Minimum Inhibitory Concentration, Compound Used Alone: Tryptic Soy Broth
# Method: as §1, §2, §3, §4, §5
# Proteus mirabilis = settings: 28° C.; for Minimum Inhibitory Concentration, Compound Used Alone: Tryptic Soy Broth
# Method: as §1, §2, §3, §4, §5
# Pseudomonas Stutzeri = settings: 28° C.; for Minimum Inhibitory Concentration, Compound Used Alone: Tryptic Soy Broth
# Method: as §1, §2, §3, §4, §5
# Pseudomonas aeruginosa = settings: 28° C.; for Minimum Inhibitory Concentration, Compound Used Alone: Tryptic Soy Broth
# Method: as §1, §2, §3, §4, §5
# Pseudomonas fluorescens = settings: 28° C.; for Minimum Inhibitory Concentration, Compound Used Alone: Tryptic Soy Broth
# Method: as §1, §2, §3, §4, §5
# Pseudomonas oleovorans = settings: 28° C.; for Minimum Inhibitory Concentration, Compound Used Alone: Tryptic Soy Broth
# Method: as §1, §2, §3, §4, §5
# Pseudomonas rubescens = settings: 28° C.; for Minimum Inhibitory Concentration, Compound Used Alone: Tryptic Soy Broth
# Method: as §1, §2, §3, §4, §5
# [1] = test system: Trichophyton mentagrophytes; settings: 28° C.; for Minimum Inhibitory Concentration, Compound Used Alone: Tryptic Soy Broth
# Method: as §1, §2, §3, §4, §5
# Fusarium sp. = settings: 28° C.
# From the text: as §3, §4, §5
# [2] = Table 1, 3 days, PB sulfate 7610 units/mg
# [3] = Table 2, 6 days, PB sulfate 7730 units/mg
# [4] = Table 1, 6-7 days, PB sulfate 7610 units/mg
# [5] = Table 2, 7 days, PB sulfate 7730 units/mg
# [6] = Table 2, concentration of the component in ZP+PB mixture, ZP/PB ratio 1/32-1/8, 7 days
# [7] = Table 1, concentration of the component in SP+PB mixture, SP/PB ratio 1/20-1/10, 6-7 days
# [8] = Table 1, concentration of the component in SP+PB mixture, SP/PB ratio 1, 6-7 days
# [9] = Table 2, concentration of the component in ZP+PB mixture, ZP/PB ratio 1/8-1, 7 days
# [10] = Table 1, concentration of the component in SP+PB mixture, SP/PB ratio 650, 3 days
substance,measurement,setting,value
Polymyxin B sulfate [PB],"Minimum Inhibitory Concentration, Compound Used Alone",Alcaligens faecalis; [2],1.4 ppm
same,"Minimum Inhibitory Concentration, Mixture","Alcaligens faecalis; Table 1, concentration of the component in SP+PB mixture, SP/PB ratio 5-41, 3 days",0.5 ppm
same,"Minimum Inhibitory Concentration, Compound Used Alone",Alcaligens faecalis; [3],3.3 ppm
same,"Minimum Inhibitory Concentration, Mixture","Alcaligens faecalis; Table 2, concentration of the component in ZP+PB mixture, ZP/PB ratio 8-32, 6 days",0.6 ppm
same,"Minimum Inhibitory Concentration, Compound Used Alone",Aspergillus niger; [4],1536.0 ppm
same,"Minimum Inhibitory Concentration, Mixture","Aspergillus niger; Table 1, concentration of the component in SP+PB mixture, SP/PB ratio 1/10, 6-7 days",256.0 ppm
same,"Minimum Inhibitory Concentration, Compound Used Alone",Aspergillus niger; [5],1024.0 ppm
same,"Minimum Inhibitory Concentration, Mixture",Aspergillus niger; [6],298.7 ppm
same,"Minimum Inhibitory Concentration, Compound Used Alone",Aureobasidium pullulans; [4],256.0 ppm
same,"Minimum Inhibitory Concentration, Mixture",Aureobasidium pullulans; [7],48.0 ppm
same,"Minimum Inhibitory Concentration, Compound Used Alone",Aureobasidium pullulans; [5],288.0 ppm
same,"Minimum Inhibitory Concentration, Mixture","Aureobasidium pullulans; Table 2, concentration of the component in ZP+PB mixture, ZP/PB ratio 1/32-1/16, 7 days",80.0 ppm
same,"Minimum Inhibitory Concentration, Compound Used Alone",Candida albicans; [4],256.0 ppm
same,"Minimum Inhibitory Concentration, Mixture",Candida albicans; [7],64.0 ppm
same,"Minimum Inhibitory Concentration, Compound Used Alone",Candida albicans; [5],341.3 ppm
same,"Minimum Inhibitory Concentration, Mixture",Candida albicans; [6],74.7 ppm
same,"Minimum Inhibitory Concentration, Compound Used Alone",Cephalosporium sp.; [4],256.0 ppm
same,"Minimum Inhibitory Concentration, Mixture",Cephalosporium sp.; [8],12.0 ppm
same,"Minimum Inhibitory Concentration, Compound Used Alone",Cephalosporium sp.; [5],170.7 ppm
same,"Minimum Inhibitory Concentration, Mixture","Cephalosporium sp.; Table 2, concentration of the component in ZP+PB mixture, ZP/PB ratio 1/16-1/8, 7 days",42.7 ppm
same,"Minimum Inhibitory Concentration, Compound Used Alone",Chaetomium globosium; [4],24.0 ppm
same,"Minimum Inhibitory Concentration, Mixture","Chaetomium globosium; Table 1, concentration of the component in SP+PB mixture, SP/PB ratio 1/10-1/5, 6-7 days",16.0 ppm
same,"Minimum Inhibitory Concentration, Compound Used Alone",Chaetomium globosium; [5],85.3 ppm
same,"Minimum Inhibitory Concentration, Mixture",Chaetomium globosium; [9],37.3 ppm
same,"Minimum Inhibitory Concentration, Compound Used Alone",Citrobacter freundii; [2],0.5 ppm
same,"Minimum Inhibitory Concentration, Mixture","Citrobacter freundii; Table 1, concentration of the component in SP+PB mixture, SP/PB ratio 41-81, 3 days",0.1 ppm
same,"Minimum Inhibitory Concentration, Compound Used Alone",Citrobacter freundii; [3],0.4 ppm
same,"Minimum Inhibitory Concentration, Mixture","Citrobacter freundii; Table 2, concentration of the component in ZP+PB mixture, ZP/PB ratio 16-64, 6 days",0.1 ppm
same,"Minimum Inhibitory Concentration, Compound Used Alone",Fusarium solani; [4],128.0 ppm
same,"Minimum Inhibitory Concentration, Mixture",Fusarium solani; [8],32.0 ppm
same,"Minimum Inhibitory Concentration, Compound Used Alone",Fusarium solani; [5],85.3 ppm
same,"Minimum Inhibitory Concentration, Mixture",Fusarium solani; [9],37.3 ppm
same,"Minimum Inhibitory Concentration, Compound Used Alone",Gliocladium virens; [4],74.7 ppm
same,"Minimum Inhibitory Concentration, Mixture","Gliocladium virens; Table 1, concentration of the component in SP+PB mixture, SP/PB ratio 1/10-1, 6-7 days",21.3 ppm
same,"Minimum Inhibitory Concentration, Compound Used Alone",Gliocladium virens; [5],64.0 ppm
same,"Minimum Inhibitory Concentration, Mixture","Gliocladium virens; Table 2, concentration of the component in ZP+PB mixture, ZP/PB ratio 1-2, 7 days",20.0 ppm
same,"Minimum Inhibitory Concentration, Compound Used Alone",Penicillin pinophilium; [4],256.0 ppm
same,"Minimum Inhibitory Concentration, Mixture",Penicillin pinophilium; [7],48.0 ppm
same,"Minimum Inhibitory Concentration, Compound Used Alone",Penicillin pinophilium; [5],128.0 ppm
same,"Minimum Inhibitory Concentration, Mixture","Penicillin pinophilium; Table 2, concentration of the component in ZP+PB mixture, ZP/PB ratio 1/8, 7 days",32.0 ppm
same,"Minimum Inhibitory Concentration, Compound Used Alone",Proteus mirabilis; [2],> 2048.0 ppm
same,"Minimum Inhibitory Concentration, Mixture","Proteus mirabilis; Table 1, concentration of the component in SP+PB mixture, SP/PB ratio 1/20-1, 3 days",288.0 ppm
same,"Minimum Inhibitory Concentration, Compound Used Alone",Proteus mirabilis; [3],> 2048.0 ppm
same,"Minimum Inhibitory Concentration, Mixture","Proteus mirabilis; Table 2, concentration of the component in ZP+PB mixture, ZP/PB ratio 1/32, 6 days",64.0 ppm
same,"Minimum Inhibitory Concentration, Compound Used Alone",Pseudomonas Stutzeri; [2],0.3 ppm
same,"Minimum Inhibitory Concentration, Mixture","Pseudomonas Stutzeri; Table 1, concentration of the component in SP+PB mixture, SP/PB ratio 325-650, 3 days",0.1 ppm
same,"Minimum Inhibitory Concentration, Compound Used Alone",Pseudomonas Stutzeri; [3],0.3 ppm
same,"Minimum Inhibitory Concentration, Mixture","Pseudomonas Stutzeri; Table 2, concentration of the component in ZP+PB mixture, ZP/PB ratio 16-128, 6 days",< 0.1 ppm
same,"Minimum Inhibitory Concentration, Compound Used Alone",Pseudomonas aeruginosa; [2],0.7 ppm
same,"Minimum Inhibitory Concentration, Mixture","Pseudomonas aeruginosa; Table 1, concentration of the component in SP+PB mixture, SP/PB ratio 163-325, 3 days",0.3 ppm
same,"Minimum Inhibitory Concentration, Compound Used Alone",Pseudomonas aeruginosa; [3],1.0 ppm
same,"Minimum Inhibitory Concentration, Mixture","Pseudomonas aeruginosa; Table 2, concentration of the component in ZP+PB mixture, ZP/PB ratio 128-256, 6 days",0.5 ppm
same,"Minimum Inhibitory Concentration, Compound Used Alone",Pseudomonas fluorescens; [2],10.7 ppm
same,"Minimum Inhibitory Concentration, Mixture","Pseudomonas fluorescens; Table 1, concentration of the component in SP+PB mixture, SP/PB ratio 3-10, 3 days",1.2 ppm
same,"Minimum Inhibitory Concentration, Compound Used Alone",Pseudomonas fluorescens; [3],6.7 ppm
same,"Minimum Inhibitory Concentration, Mixture","Pseudomonas fluorescens; Table 2, concentration of the component in ZP+PB mixture, ZP/PB ratio 8-16, 6 days",0.4 ppm
same,"Minimum Inhibitory Concentration, Compound Used Alone",Pseudomonas oleovorans; [2],0.3 ppm
same,"Minimum Inhibitory Concentration, Mixture",Pseudomonas oleovorans; [10],< 0.1 ppm
same,"Minimum Inhibitory Concentration, Compound Used Alone",Pseudomonas oleovorans; [3],0.5 ppm
same,"Minimum Inhibitory Concentration, Mixture","Pseudomonas oleovorans; Table 2, concentration of the component in ZP+PB mixture, ZP/PB ratio 16-32, 6 days",0.2 ppm
same,"Minimum Inhibitory Concentration, Compound Used Alone",Pseudomonas rubescens; [2],< 0.1 ppm
same,"Minimum Inhibitory Concentration, Mixture",Pseudomonas rubescens; [10],< 0.1 ppm
same,"Minimum Inhibitory Concentration, Compound Used Alone",Pseudomonas rubescens; [3],< 0.1 ppm
same,"Minimum Inhibitory Concentration, Mixture","Pseudomonas rubescens; Table 2, concentration of the component in ZP+PB mixture, ZP/PB ratio 256, 6 days",< 0.1 ppm
same,"Minimum Inhibitory Concentration, Compound Used Alone",[1]; [4],32.0 ppm
same,"Minimum Inhibitory Concentration, Mixture","[1]; Table 1, concentration of the component in SP+PB mixture, SP/PB ratio 1/10-1/3, 6-7 days",26.7 ppm
same,"Minimum Inhibitory Concentration, Compound Used Alone",[1]; [5],53.0 ppm
same,"Minimum Inhibitory Concentration, Mixture","[1]; Table 2, concentration of the component in ZP+PB mixture, ZP/PB ratio 1/4-1/2, 7 days",26.7 ppm
same,"Minimum Inhibitory Concentration, Mixture",Fusarium sp.; [8],32.0 ppm
same,"Minimum Inhibitory Concentration, Compound Used Alone","Fusarium sp.; Table 2, alone, Tryptic Soy Broth, 7 days, PB sulfate 7730 units/mg",106.7 ppm
